According to ChEMBL document CHEMBL1201862, “PubChem BioAssay data set” (2004):
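Growth conditions: 96-well plates. Treatment: test compound, 48 hours, 5 concentrations. Analysis: linear interpolation between bracketing concentrations; unreached endpoints set to highest concentration. GI50: concentration for 50% inhibition of growth.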 Active and inactive are the calls of the source. No stated cut-off is given here; in the data, active = GI50 up to about 1.1 µM and inactive = higher. Residues, ends and D or L forms follow the SMILES beside them. *: point of attachment. X38 = O=C(c1ccc(-c2ccc(Cl)cc2Cl)o1)*

Assays:
Experiment in all cases: NCI tumour cell line growth inhibition, 48 h
BT-549 = system: BT-549
CAKI-1 = system: CAKI-1
COLO 205 = system: COLO 205
EKVX = system: EKVX
HOP-62 = system: HOP-62
M14 = system: M14
Malme-3M = system: Malme-3M
NCI-H522 = system: NCI-H522
PC-3 = system: PC-3
SF-268 = system: SF-268
SF-295 = system: SF-295
SK-MEL-28 = system: SK-MEL-28
SK-MEL-2 = system: SK-MEL-2
SNB-19 = system: SNB-19
SNB-75 = system: SNB-75
SR = system: SR
TK-10 = system: TK-10
U-251 = system: U-251
UO-31 = system: UO-31
MDA-MB-231 = system: MDA-MB-231

Row | SMILES | GI50 (BT-549) | GI50 (CAKI-1) | GI50 (COLO 205) | GI50 (EKVX) | GI50 (HOP-62) | GI50 (M14) | GI50 (Malme-3M) | GI50 (NCI-H522) | GI50 (PC-3) | GI50 (SF-268) | GI50 (SF-295) | GI50 (SK-MEL-28) | GI50 (SK-MEL-2) | GI50 (SNB-19) | GI50 (SNB-75) | GI50 (SR) | GI50 (TK-10) | GI50 (U-251) | GI50 (UO-31) | GI50 (MDA-MB-231)
1 | CCOC(=O)Cn1nnc2cc(Nc3nc4ccccc4nc3C(=O)OCC)ccc21 | > 100 µM (inactive) | > 100 µM (inactive) | > 100 µM (inactive) | 33.7 µM (inactive) | 24.4 µM (inactive) | > 100 µM (inactive) | > 100 µM (inactive) | > 100 µM (inactive) | > 100 µM (inactive) | 22.5 µM (inactive) | 26.4 µM (inactive) | > 100 µM (inactive) | 78.2 µM (inactive) | 29 µM (inactive) | 4.21 µM (inactive) | > 100 µM (inactive) | 22.5 µM (inactive) | 36 µM (inactive) | 2 µM (inactive) | –
2 | COc1cc(-c2cn(S(=O)(=O)c3ccc(C)cc3)c3ccccc23)nc(-c2cn(S(=O)(=O)c3ccc(C)cc3)c3ccccc23)n1 | 4.85 µM (inactive) | 1.3 µM (inactive) | 0.745 µM (active) | 0.783 µM (active) | 1.84 µM (inactive) | 0.478 µM (active) | – | 0.239 µM (active) | 0.773 µM (active) | 0.755 µM (active) | 0.432 µM (active) | 23.3 µM (inactive) | 0.984 µM (active) | 0.54 µM (active) | 4.42 µM (inactive) | 0.216 µM (active) | 8.22 µM (inactive) | 0.354 µM (active) | 0.968 µM (active) | 0.933 µM (active)
3 | COc1ccc2c(CCN)c(C(=O)O)[nH]c2c1 | > 100 µM (inactive) | > 100 µM (inactive) | > 100 µM (inactive) | > 100 µM (inactive) | > 100 µM (inactive) | > 100 µM (inactive) | > 100 µM (inactive) | > 100 µM (inactive) | > 100 µM (inactive) | > 100 µM (inactive) | > 100 µM (inactive) | > 100 µM (inactive) | > 100 µM (inactive) | > 100 µM (inactive) | > 100 µM (inactive) | – | > 100 µM (inactive) | > 100 µM (inactive) | > 100 µM (inactive) | > 100 µM (inactive)
4 | CCN(CC)/N=N/c1c(C(N)=O)n[nH]c1C | 11.1 µM (inactive) | 17.9 µM (inactive) | 52.5 µM (inactive) | 26.9 µM (inactive) | 31.2 µM (inactive) | > 100 µM (inactive) | 64.3 µM (inactive) | 65.2 µM (inactive) | > 100 µM (inactive) | 39.3 µM (inactive) | 38.1 µM (inactive) | > 100 µM (inactive) | > 100 µM (inactive) | 77.1 µM (inactive) | 23.2 µM (inactive) | – | > 100 µM (inactive) | 59 µM (inactive) | 20.7 µM (inactive) | > 100 µM (inactive)
5 | Cc1ccc(/C=C2\Sc3scc(-c4ccccc4)[n+]3C2=O)cc1 | 17.4 µM (inactive) | – | 20.7 µM (inactive) | 19.3 µM (inactive) | 26.2 µM (inactive) | 23.8 µM (inactive) | – | 3.4 µM (inactive) | 29 µM (inactive) | 17.9 µM (inactive) | 24.6 µM (inactive) | 51.5 µM (inactive) | 24.1 µM (inactive) | 24.5 µM (inactive) | 10.8 µM (inactive) | 5 µM (inactive) | 19.8 µM (inactive) | 16.2 µM (inactive) | 14.5 µM (inactive) | 17.5 µM (inactive)
6 | COc1cc2oc3c(c(=O)c2c(O)c1/C=C/C(C)C)C(C=C(C)C)Oc1cc(O)ccc1-3 (centres undefined) | 10.6 µM (inactive) | 18 µM (inactive) | 15.1 µM (inactive) | 16.1 µM (inactive) | – | 13.3 µM (inactive) | 22.5 µM (inactive) | 16.8 µM (inactive) | 15.6 µM (inactive) | 18.7 µM (inactive) | 17.1 µM (inactive) | 16.5 µM (inactive) | 16 µM (inactive) | 16.4 µM (inactive) | 15.3 µM (inactive) | – | 16.4 µM (inactive) | 16.7 µM (inactive) | 12.1 µM (inactive) | 18 µM (inactive)
7 | COC(=O)C(CC(C)C)NC(=O)C(Cc1ccccc1)NC(=O)C1CCCN1C(=O)C(CO)NC(=O)c1ccc(-c2ccc(Cl)cc2Cl)o1 (centres undefined) (X38-SPFL-OMe; configuration not given here) | 25.6 µM (inactive) | 28.3 µM (inactive) | 16 µM (inactive) | – | – | 19.9 µM (inactive) | 42.1 µM (inactive) | 28.1 µM (inactive) | 31.6 µM (inactive) | 40.3 µM (inactive) | 19.5 µM (inactive) | 52.1 µM (inactive) | 16.9 µM (inactive) | 21.9 µM (inactive) | 25.7 µM (inactive) | – | 24.8 µM (inactive) | 21.4 µM (inactive) | 23.9 µM (inactive) | 15.5 µM (inactive)
